According to ChEMBL document CHEMBL1201862, “PubChem BioAssay data set” (2004):
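48-hour exposure; five concentrations; linearly interpolated endpoints. GI50 = concentration required for 50% inhibition of growth.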 Active and inactive are the calls of the source. Rule as the data show it: active = GI50 up to about 1.1 µM and inactive = higher.

Legend:
Test in all cases: NCI anticancer screen, dose series, 48 h
786-0 = test system: 786-0
A549 = test system: A549
ACHN = test system: ACHN
BT-549 = test system: BT-549
EKVX = test system: EKVX
HL-60 = test system: HL-60
HT-29 = test system: HT-29
Hs-578T = test system: Hs-578T
KM12 = test system: KM12
MCF7 = test system: MCF7
MDA-N = test system: MDA-N
Malme-3M = test system: Malme-3M
NCI-H460 = test system: NCI-H460
NCI-H522 = test system: NCI-H522
SF-268 = test system: SF-268
SK-MEL-28 = test system: SK-MEL-28
SK-MEL-2 = test system: SK-MEL-2
SK-OV-3 = test system: SK-OV-3
SNB-19 = test system: SNB-19
SW-620 = test system: SW-620

SMILES	GI50 (786-0)	GI50 (A549)	GI50 (ACHN)	GI50 (BT-549)	GI50 (EKVX)	GI50 (HL-60)	GI50 (HT-29)	GI50 (Hs-578T)	GI50 (KM12)	GI50 (MCF7)	GI50 (MDA-N)	GI50 (Malme-3M)	GI50 (NCI-H460)	GI50 (NCI-H522)	GI50 (SF-268)	GI50 (SK-MEL-28)	GI50 (SK-MEL-2)	GI50 (SK-OV-3)	GI50 (SNB-19)	GI50 (SW-620)
COc1cc(C)cc(C(=O)OCc2ccccc2)c1C1=C(Cl)C(=O)C(Cl)=CC1=O	> 5.71 µM (inactive)	> 10 µM (inactive)	> 10 µM (inactive)	> 10 µM (inactive)	> 10 µM (inactive)	1.86 µM (inactive)	> 10 µM (inactive)	> 10 µM (inactive)	> 10 µM (inactive)	> 9.42 µM (inactive)	> 10 µM (inactive)	> 10 µM (inactive)	> 10 µM (inactive)	2.05 µM (inactive)	> 10 µM (inactive)	> 10 µM (inactive)	> 10 µM (inactive)	> 10 µM (inactive)	> 10 µM (inactive)	> 7.59 µM (inactive)
CCOC(=O)C1C(=O)CC(O)(c2ccccc2)C(C(=O)OCC)C1c1ccc(N(C)C)cc1 (stereo not given)	26.7 µM (inactive)	35.5 µM (inactive)	50.4 µM (inactive)	28.6 µM (inactive)	40.9 µM (inactive)	8.18 µM (inactive)	15.8 µM (inactive)	2.1 µM (inactive)	20.3 µM (inactive)	21.8 µM (inactive)	6.44 µM (inactive)	18.2 µM (inactive)	20 µM (inactive)	9.71 µM (inactive)	24.9 µM (inactive)	45.6 µM (inactive)	33 µM (inactive)	18.2 µM (inactive)	29.9 µM (inactive)	19.8 µM (inactive)
CC1CC[C@@]2(OC1)OC1C[C@H]3[C@@H]4CC[C@H]5CC(OC6OC(CO)C(OC7OC(CO)C(O)C(O)C7O)C(O)C6O)CCC5(C)[C@H]4CCC3(C)C1[C@@H]2C (stereo not given in full)	8.26 µM (inactive)	9.35 µM (inactive)	7.53 µM (inactive)	4.86 µM (inactive)	5.33 µM (inactive)	8.87 µM (inactive)	7.35 µM (inactive)	8.57 µM (inactive)	8.18 µM (inactive)	5.85 µM (inactive)	8.2 µM (inactive)	8.13 µM (inactive)	9.04 µM (inactive)	6.19 µM (inactive)	9.57 µM (inactive)	9.2 µM (inactive)	7.85 µM (inactive)	10.1 µM (inactive)	9.04 µM (inactive)	8.81 µM (inactive)
COc1cc(/C=C2/SC(c3ccccc3)N(c3ccc(Cl)cc3)C2=O)cc(OC)c1OC (stereo not given)	> 100 µM (inactive)	> 41.5 µM (inactive)	4.35 µM (inactive)	> 59 µM (inactive)	> 52.6 µM (inactive)	10.1 µM (inactive)	> 100 µM (inactive)	> 100 µM (inactive)	5.46 µM (inactive)	3.96 µM (inactive)	2.37 µM (inactive)	27 µM (inactive)	8 µM (inactive)	18.3 µM (inactive)	19.5 µM (inactive)	> 56.6 µM (inactive)	> 20.6 µM (inactive)	9.48 µM (inactive)	> 58.2 µM (inactive)	57.4 µM (inactive)
NC1=Nc2cc(C(F)(F)F)ccc2Sc2nc3ccccc3n21	11.6 µM (inactive)	> 56 µM (inactive)	> 78.9 µM (inactive)	> 100 µM (inactive)	13.8 µM (inactive)	3.15 µM (inactive)	12.6 µM (inactive)	42.1 µM (inactive)	> 37 µM (inactive)	> 76.9 µM (inactive)	5.53 µM (inactive)	> 86.1 µM (inactive)	10.1 µM (inactive)	10.4 µM (inactive)	16.6 µM (inactive)	> 100 µM (inactive)	55.8 µM (inactive)	37.5 µM (inactive)	15.6 µM (inactive)	> 100 µM (inactive)
Sc1nc2c(c(-c3nc(S)nc4c3CCCCCCCCCC4)n1)CCCCCCCCCC2	> 100 µM (inactive)	> 100 µM (inactive)	> 100 µM (inactive)	> 100 µM (inactive)	> 100 µM (inactive)	> 100 µM (inactive)	> 100 µM (inactive)	> 100 µM (inactive)	> 100 µM (inactive)	> 100 µM (inactive)	> 100 µM (inactive)	> 100 µM (inactive)	> 100 µM (inactive)	> 100 µM (inactive)	> 100 µM (inactive)	> 100 µM (inactive)	> 100 µM (inactive)	> 100 µM (inactive)	> 100 µM (inactive)	> 100 µM (inactive)
Cn1cc(S(=O)(=O)NC(=O)Nc2ccc(Cl)cc2)c2ccccc21	> 100 µM (inactive)	63.4 µM (inactive)	25.4 µM (inactive)	> 100 µM (inactive)	> 100 µM (inactive)	> 100 µM (inactive)	> 100 µM (inactive)	> 100 µM (inactive)	28.5 µM (inactive)	56 µM (inactive)	27.4 µM (inactive)	> 100 µM (inactive)	57.4 µM (inactive)	24.5 µM (inactive)	> 100 µM (inactive)	> 100 µM (inactive)	54.7 µM (inactive)	55.5 µM (inactive)	> 100 µM (inactive)	50.6 µM (inactive)
COc1cc2c(cc1OC)C1C(O)C(OC)C(Br)C3(Br)CCN(C2)C13 (stereo not given)	> 100 µM (inactive)	> 100 µM (inactive)	> 100 µM (inactive)	> 100 µM (inactive)	> 100 µM (inactive)	> 100 µM (inactive)	> 100 µM (inactive)	> 100 µM (inactive)	94.8 µM (inactive)	> 100 µM (inactive)	> 100 µM (inactive)	42.6 µM (inactive)	56.6 µM (inactive)	50.8 µM (inactive)	9.04 µM (inactive)	> 100 µM (inactive)	> 100 µM (inactive)	> 100 µM (inactive)	46.2 µM (inactive)	> 100 µM (inactive)
Nc1ccc2c(=O)cc(-c3cccs3)[nH]c2n1	3.45 µM (inactive)	3.65 µM (inactive)	11.7 µM (inactive)	4.88 µM (inactive)	6.5 µM (inactive)	0.234 µM (active)	3.66 µM (inactive)	3.66 µM (inactive)	0.535 µM (active)	1.12 µM (inactive)	0.223 µM (active)	8.18 µM (inactive)	2.77 µM (inactive)	1.36 µM (inactive)	8.93 µM (inactive)	4.32 µM (inactive)	6.32 µM (inactive)	5.25 µM (inactive)	7.38 µM (inactive)	1.01 µM (active)
CC(=O)C1C(=O)C(=O)N(c2ccc([N+](=O)[O-])cc2)C1=O (stereo not given)	> 100 µM (inactive)	80.4 µM (inactive)	> 100 µM (inactive)	> 100 µM (inactive)	> 100 µM (inactive)	> 100 µM (inactive)	> 100 µM (inactive)	> 100 µM (inactive)	> 100 µM (inactive)	> 100 µM (inactive)	> 100 µM (inactive)		> 100 µM (inactive)	> 100 µM (inactive)	> 100 µM (inactive)	> 100 µM (inactive)	66.2 µM (inactive)	> 100 µM (inactive)	> 100 µM (inactive)	> 100 µM (inactive)
CSC1=Nc2ccccc2-c2nc3ccccc3cc2C1	> 100 µM (inactive)	> 100 µM (inactive)	> 100 µM (inactive)	> 100 µM (inactive)	> 100 µM (inactive)	76 µM (inactive)	> 100 µM (inactive)	> 100 µM (inactive)	14.4 µM (inactive)	> 100 µM (inactive)	> 100 µM (inactive)	> 100 µM (inactive)	> 100 µM (inactive)	69.2 µM (inactive)	> 100 µM (inactive)	> 100 µM (inactive)	> 100 µM (inactive)	> 100 µM (inactive)	> 100 µM (inactive)	
Cc1cc2c3c(ccc4[nH]cc(c43)CN2c2ccc(NS(C)(=O)=O)cc2)n1	11.4 µM (inactive)	25.6 µM (inactive)	70.3 µM (inactive)	35.5 µM (inactive)	26.8 µM (inactive)	28.1 µM (inactive)	> 100 µM (inactive)	> 100 µM (inactive)	> 100 µM (inactive)	65 µM (inactive)	> 100 µM (inactive)		91.6 µM (inactive)	5.75 µM (inactive)	3.28 µM (inactive)	> 100 µM (inactive)	37.7 µM (inactive)	32.3 µM (inactive)	1.83 µM (inactive)	> 100 µM (inactive)
CCOC(=O)C1=NNC(C(=O)c2ccccc2)C1c1ccccc1 (stereo not given)	2.11 µM (inactive)	19.1 µM (inactive)	1.85 µM (inactive)	2.08 µM (inactive)	8.95 µM (inactive)	0.644 µM (active)	2.28 µM (inactive)	4.12 µM (inactive)	6.87 µM (inactive)	1.91 µM (inactive)	1.85 µM (inactive)	2.19 µM (inactive)		1.15 µM (inactive)	5 µM (inactive)	1.91 µM (inactive)	16.2 µM (inactive)	18.8 µM (inactive)	14.4 µM (inactive)	1.75 µM (inactive)
Cc1c(-c2ccccc2)[nH]n(C2=NCCN2)c1=O	> 100 µM (inactive)	> 100 µM (inactive)	> 100 µM (inactive)	> 100 µM (inactive)	> 100 µM (inactive)	88.5 µM (inactive)	46.3 µM (inactive)	> 100 µM (inactive)	> 100 µM (inactive)	> 100 µM (inactive)	> 100 µM (inactive)	41 µM (inactive)	78.7 µM (inactive)	> 100 µM (inactive)	> 100 µM (inactive)		> 100 µM (inactive)	> 100 µM (inactive)	> 100 µM (inactive)	> 100 µM (inactive)
